Assay results from ChEMBL document CHEMBL4321845, “Discovery and Characterization of Potent Pan-Genotypic HCV NS5A Inhibitors Containing Novel Tricyclic Central Core Leading to Clinical Candidate” (J Med Chem, 2019).

Key:
[1] = target: T1, Nonstructural protein 5A (Hepatitis C virus) (UniProt Q5L478); test: Inhibition of NS5A in HCV genotype 1b infected in human HuH7.5/Con1/SG-Neo(I)-hRluc2aUb cells assessed as inhibition of replicon levels at 1 uM incubated for 72 hrs by luciferase reporter gene assay relative to control; conditions: Hepatitis C virus subtype 1b
T1 sequence (whole entry): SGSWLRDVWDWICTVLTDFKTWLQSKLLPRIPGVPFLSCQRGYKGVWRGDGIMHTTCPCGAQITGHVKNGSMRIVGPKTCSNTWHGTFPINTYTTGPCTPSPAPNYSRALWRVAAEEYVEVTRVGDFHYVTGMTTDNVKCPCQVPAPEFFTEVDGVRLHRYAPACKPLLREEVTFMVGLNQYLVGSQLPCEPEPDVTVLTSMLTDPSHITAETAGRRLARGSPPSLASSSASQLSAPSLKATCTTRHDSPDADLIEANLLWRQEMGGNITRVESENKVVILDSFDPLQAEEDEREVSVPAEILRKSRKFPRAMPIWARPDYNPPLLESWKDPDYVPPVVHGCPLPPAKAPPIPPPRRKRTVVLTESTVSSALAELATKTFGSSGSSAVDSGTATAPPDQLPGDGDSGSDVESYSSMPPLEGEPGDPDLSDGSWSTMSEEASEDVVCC

[2] = target: T1, Nonstructural protein 5A (Hepatitis C virus); test: Inhibition of NS5A in HCV genotype 2a infected in human Huh7.5/J6/JFH1/EMCVIRES/hRlucNeo cells assessed as inhibition of replicon levels at 1 uM incubated for 72 hrs by luciferase reporter gene assay; conditions: Hepatitis C virus subtype 2a
[3] = Cmax in beagle dog at 10 mg/kg, po measured up to 24 hrs by LC-MS/MS analysis; type: ADME, organism-based, Canis lupus familiaris; design: dose 10 mg/kg, route oral; conditions: in vivo
CYP3A4 = CYP3A4 (Homo sapiens, UniProt P08684); test: Inhibition of CYP3A4 in pooled human liver microsomes at 10 uM pre-incubated for 5 mins before NADPH addition and measured after 10 mins by UPLC-MS/MS analysis relative to control; type: ADME
[4] = AUC (last) in rat at 100 mg/kg, po measured up to 24 hrs by LC-MS/MS analysis; type: ADME, organism-based; design: dose 100 mg/kg, time 0 - last, route oral; conditions: in vivo
[5] = Cytotoxicity in human HEK293 cells assessed as inhibition of cell growth at 3 uM incubated for 72 hrs by CCK8 assay relative to control; type: cell-based; conditions: read-out: GI
[6] = Clearance in beagle dog at 1 mg/kg, iv measured up to 24 hrs by LC-MS/MS analysis; type: ADME, organism-based, Canis lupus familiaris; conditions: in vivo
[7] = Cytotoxicity in human HepG2 cells assessed as inhibition of cell growth at 3 uM incubated for 72 hrs by CCK8 assay relative to control; type: cell-based; conditions: read-out: GI
[8] = Cytotoxicity in human HuH7 cells assessed as inhibition of cell growth at 3 uM incubated for 72 hrs by CCK8 assay relative to control; type: cell-based, Huh-7; conditions: read-out: GI
[9] = AUC(last) in rat at 1 mg/kg, iv measured up to 24 hrs by LC-MS/MS analysis; type: ADME, organism-based; design: dose 1 mg/kg, route intravenous, time 0 - last; conditions: in vivo
[10] = Volume of distribution at steady state in rat at 1 mg/kg, iv measured up to 24 hrs by LC-MS/MS analysis; type: ADME, organism-based; conditions: in vivo, read-out: Vdss
[11] = Clearance in rat at 1 mg/kg, iv measured up to 24 hrs by LC-MS/MS analysis; type: ADME, organism-based; conditions: in vivo
[12] = Half life in beagle dog at 1 mg/kg, iv measured up to 24 hrs by LC-MS/MS analysis; type: ADME, organism-based, Canis lupus familiaris; conditions: in vivo
[13] = Cytotoxicity in human HEK293 cells assessed as inhibition of cell growth at 10 uM incubated for 72 hrs by CCK8 assay relative to control; type: cell-based; conditions: read-out: GI
[14] = Oral bioavailability in beagle dog at 10 mg/kg measured up to 24 hrs by LC-MS/MS analysis; type: ADME, organism-based, Canis lupus familiaris; conditions: in vivo
[15] = Drug metabolism in human liver microsomes assessed as metabolic rate at 1 uM preincubated for 5 mins before NADPH addition and measured up to 30 mins by LC-MS/MS analysis; type: ADME, Microsome; conditions: 0.5 h
[16] = Oral bioavailability in rat at 10 mg/kg measured up to 24 hrs by LC-MS/MS analysis; type: ADME, organism-based; conditions: in vivo
[17] = AUC (last) in rat at 10 mg/kg, po measured up to 24 hrs by LC-MS/MS analysis; type: ADME, organism-based; design: dose 10 mg/kg, time 0 - last, route oral; conditions: in vivo
[18] = AUC(last) in beagle dog at 1 mg/kg, iv measured up to 24 hrs by LC-MS/MS analysis; type: ADME, organism-based, Canis lupus familiaris; design: dose 1 mg/kg, route intravenous, time 0 - last; conditions: in vivo
[19] = Ratio of dug level in liver to plasma of Wistar rat at 10 mg/kg, po measured at 4 hrs by LC-MS/MS analysis; type: ADME, organism-based
[20] = Drug level in plasma of Wistar rat at 10 mg/kg, po measured at 4 hrs by LC-MS/MS analysis; type: ADME, organism-based
[21] = Cmax in rat at 10 mg/kg, po measured up to 24 hrs by LC-MS/MS analysis; type: ADME, organism-based; design: dose 10 mg/kg, route oral; conditions: in vivo
CYP2D6 = CYP2D6 (Homo sapiens, UniProt P10635); test: Inhibition of CYP2D6 in pooled human liver microsomes at 10 uM pre-incubated for 5 mins before NADPH addition and measured after 10 mins by UPLC-MS/MS analysis relative to control; type: ADME
[22] = Cytotoxicity in human HepG2 cells assessed as inhibition of cell growth at 10 uM incubated for 72 hrs by CCK8 assay relative to control; type: cell-based; conditions: read-out: GI
[23] = AUC (last) in beagle dog at 10 mg/kg, po measured up to 24 hrs by LC-MS/MS analysis; type: ADME, organism-based, Canis lupus familiaris; design: dose 10 mg/kg, time 0 - last, route oral; conditions: in vivo
[24] = Tmax in rat at 30 mg/kg, po measured up to 24 hrs by LC-MS/MS analysis; type: ADME, organism-based; conditions: in vivo
[25] = Cmax in rat at 100 mg/kg, po measured up to 24 hrs by LC-MS/MS analysis; type: ADME, organism-based; design: dose 100 mg/kg, route oral; conditions: in vivo
[26] = Cmax in rat at 30 mg/kg, po measured up to 24 hrs by LC-MS/MS analysis; type: ADME, organism-based; design: dose 30 mg/kg, route oral; conditions: in vivo
[27] = Tmax in rat at 10 mg/kg, po measured up to 24 hrs by LC-MS/MS analysis; type: ADME, organism-based; conditions: in vivo
[28] = Drug metabolism in rat liver microsomes assessed as metabolic rate at 1 uM preincubated for 5 mins before NADPH addition and measured up to 30 mins by LC-MS/MS analysis; type: ADME, Microsome; conditions: 0.5 h
[29] = Half life in rat at 1 mg/kg, iv measured up to 24 hrs by LC-MS/MS analysis; type: ADME, organism-based; conditions: in vivo
CYP2C9 = CYP2C9 (Homo sapiens, UniProt P11712); test: Inhibition of CYP2C9 in pooled human liver microsomes at 10 uM pre-incubated for 5 mins before NADPH addition and measured after 10 mins by UPLC-MS/MS analysis relative to control; type: ADME
[30] = Drug level in liver of Wistar rat at 10 mg/kg, po measured at 4 hrs by LC-MS/MS analysis; type: ADME, organism-based; conditions: read-out: Drug uptake
[31] = Volume of distribution at steady state in beagle dog at 1 mg/kg, iv measured up to 24 hrs by LC-MS/MS analysis; type: ADME, organism-based, Canis lupus familiaris; conditions: in vivo, read-out: Vdss
[32] = AUC (last) in rat at 30 mg/kg, po measured up to 24 hrs by LC-MS/MS analysis; type: ADME, organism-based; design: dose 30 mg/kg, time 0 - last, route oral; conditions: in vivo
[33] = Tmax in rat at 100 mg/kg, po measured up to 24 hrs by LC-MS/MS analysis; type: ADME, organism-based; conditions: in vivo
[34] = Drug level in liver of Wistar rat at 10 mg/kg, po measured up to 8 hrs by LC-MS/MS analysis; type: ADME, organism-based; conditions: in vivo

Chain of CYP2D6 (P10635 whole entry): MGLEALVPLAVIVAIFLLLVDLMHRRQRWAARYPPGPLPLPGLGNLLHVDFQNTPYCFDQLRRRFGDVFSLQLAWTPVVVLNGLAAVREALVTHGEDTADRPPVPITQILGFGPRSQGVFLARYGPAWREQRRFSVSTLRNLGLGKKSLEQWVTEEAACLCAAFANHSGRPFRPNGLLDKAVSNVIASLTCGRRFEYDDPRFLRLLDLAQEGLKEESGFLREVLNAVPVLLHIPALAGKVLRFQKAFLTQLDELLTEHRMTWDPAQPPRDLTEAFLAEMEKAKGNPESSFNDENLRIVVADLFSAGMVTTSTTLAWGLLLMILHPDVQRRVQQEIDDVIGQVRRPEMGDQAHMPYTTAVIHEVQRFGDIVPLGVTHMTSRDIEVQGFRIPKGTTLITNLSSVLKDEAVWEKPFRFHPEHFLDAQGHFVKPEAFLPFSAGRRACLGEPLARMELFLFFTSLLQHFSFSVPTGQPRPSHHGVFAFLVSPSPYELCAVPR
Chain of CYP2C9 (P11712 whole entry): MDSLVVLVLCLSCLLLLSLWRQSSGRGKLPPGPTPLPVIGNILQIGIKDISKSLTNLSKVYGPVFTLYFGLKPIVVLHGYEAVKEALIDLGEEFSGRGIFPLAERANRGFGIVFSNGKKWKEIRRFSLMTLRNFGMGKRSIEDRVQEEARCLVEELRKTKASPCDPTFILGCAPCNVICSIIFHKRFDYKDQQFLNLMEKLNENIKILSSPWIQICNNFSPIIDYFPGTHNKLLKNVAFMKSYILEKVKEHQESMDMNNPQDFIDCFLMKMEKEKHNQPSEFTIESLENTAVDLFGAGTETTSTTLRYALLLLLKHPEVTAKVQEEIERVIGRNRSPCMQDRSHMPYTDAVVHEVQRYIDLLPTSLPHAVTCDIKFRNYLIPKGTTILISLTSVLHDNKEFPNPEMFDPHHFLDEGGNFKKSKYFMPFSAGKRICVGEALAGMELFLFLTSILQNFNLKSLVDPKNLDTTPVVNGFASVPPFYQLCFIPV
Chain of CYP3A4 (P08684 whole entry): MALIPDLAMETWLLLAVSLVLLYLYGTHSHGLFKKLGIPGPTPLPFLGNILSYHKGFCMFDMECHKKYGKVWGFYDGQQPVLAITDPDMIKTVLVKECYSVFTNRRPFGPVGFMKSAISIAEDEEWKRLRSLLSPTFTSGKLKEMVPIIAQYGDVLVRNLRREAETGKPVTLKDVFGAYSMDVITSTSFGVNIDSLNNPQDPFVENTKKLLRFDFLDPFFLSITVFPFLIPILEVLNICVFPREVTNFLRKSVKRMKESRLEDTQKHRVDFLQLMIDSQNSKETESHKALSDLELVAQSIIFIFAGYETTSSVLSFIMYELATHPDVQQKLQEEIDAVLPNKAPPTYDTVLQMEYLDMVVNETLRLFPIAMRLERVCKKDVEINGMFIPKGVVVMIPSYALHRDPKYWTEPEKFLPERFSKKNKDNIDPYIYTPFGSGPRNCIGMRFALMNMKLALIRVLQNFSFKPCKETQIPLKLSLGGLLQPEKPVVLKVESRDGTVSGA

COC(=O)N[C@H](C(=O)N1CCC[C@H]1c1ncc(-c2cc3c(cc2OC)C2(CC3(C)C)CC(C)(C)c3cc(-c4cnc([C@@H]5CCCN5C(=O)[C@@H](NC(=O)OC)C(C)C)[nH]4)c(OC)cc32)[nH]1)C(C)C
inhibition [1]: 79% | inhibition [2]: 13%

COC(=O)N[C@H](C(=O)N1CCC[C@H]1c1ncc(-c2ccc3c(ccc4sc(-c5cnc([C@@H]6CCCN6C(=O)[C@@H](NC(=O)OC)C(C)C)[nH]5)nc43)c2)[nH]1)C(C)C
inhibition [2]: 0%

COC(=O)N[C@H](C(=O)N1CCC[C@H]1c1ncc(-c2ccc3c(c2)OCc2cc(-c4cnc([C@@H]5CCCN5C(=O)[C@@H](NC(=O)OC)C(C)C)[nH]4)sc2-3)[nH]1)C(C)C
Cmax [3]: 3000 nM | inhibition at 10 min, 10 µM (CYP3A4): 22% | AUC(0-t) at 24 h [4]: 76 µM·h | inhibition at 72 h, 3 µM [5]: 14% | clearance [6]: 7 mL/min/kg | inhibition at 72 h, 3 µM [7]: 0% | inhibition at 72 h, 3 µM [8]: 3% | AUC(0-t) at 24 h [9]: 2 µM·h | Vd [10]: 1.5 L/kg | clearance [11]: 10 mL/min/kg | half-life [12]: 3 h | inhibition at 72 h, 10 µM [13]: 22% | bioavailability [14]: 100% | Drug metabolism [15]: 0.02 nmol/min/mg | bioavailability [16]: 30% | AUC(0-t) at 24 h [17]: 2 to 6 µM·h | AUC(0-t) at 24 h [18]: 3 µM·h | Kp at 4 h [19]: 5.5 | concentration at 4 h [20]: 1390 nM | Cmax [21]: 300 to 2000 nM | inhibition at 10 min, 10 µM (CYP2D6): 13% | inhibition at 72 h, 10 µM [22]: 16% | AUC(0-t) at 24 h [23]: 40 µM·h | Tmax [24]: 4 to 6 h | Cmax [25]: 7000 nM | Cmax [26]: 2000 nM | Tmax [27]: 2 to 4 h | Drug metabolism [28]: 0.01 nmol/min/mg | half-life [29]: 1.9 h | inhibition at 10 min, 10 µM (CYP2C9): 41% | concentration at 4 h [30]: 7900 nM | Vd [31]: 2 L/kg | AUC(0-t) at 24 h [32]: 28 µM·h | Tmax [33]: 2 to 6 h | Drug uptake [34]: Active
